Consider two compounds from US9138013B2, “Sweet flavor modifier” (SENOMYX, INC., priority 2012, dated 2015).

Usually melting point stands for the temperature of the solid-liquid transition.

Series [1] concerns human panelists. As to the kind of experiment: Paired comparison test, sweet flavor potentiation with sucrose or HFCS as the sweetener. The class given is in vivo. On the procedure:
(§1) Test samples containing experimental compounds are presented in pairs to the panelist and they are asked to determine which of the sample is sweeter. […] A group of 10-16 or more panelists participated in each test. Subjects refrained from eating or drinking (except water) for at least 1 hour prior to the test. Subjects rinsed with water several times to clean the mouth.
(§2) Taste tests were performed with sucrose or HFCS as the sweetener in the presence or absence of compound. A 0.2% stock solution of compound in water with sodium bicarbonate was prepared and then this stock solution was diluted in the final sample to achieve the targeted final concentration of compound. For the sample evaluated at pH 2.8 the pH of the solution is decreased to about pH 2.8 using citric acid. Taste samples were also prepared in a low sodium phosphate buffer (pH 7.1; “LSB”) lacking sucrose or HFCS to evaluate the taste of the compound alone. Low sodium phosphate buffer consists of 0.3 mM KCl, 0.5 mM Na2HPO4, and 0.175 mM KH2PO4. Sample volumes are usually 20 ml.
(§3) In one paired comparison test, the panelist is presented with two different samples and asked to identify the sample which is sweeter. The samples within a paired comparison test are presented in a randomized, counterbalanced order. Panelists have up to a 1 minute delay between taste tests to clear the mouth of any tastes.
(§4) Binomial probability tables are used to determine the probability of the correct number of responses occurring for each test at alpha=0.05.

Series [2] deals with human panelists. Briefly: Sucrose potentiation in Iced Coffee product prototype, paired comparison test. The series is classed as in vivo. The following applies: Table 19: Iced Coffee, 8% Sucrose vs 4% Sucrose + 7.6 μM Compound K2; n = 33 (11 panelists × 3 reps). The method, then:
All samples were made in an Iced Coffee formulation consisting of Brewed Coffee, 2% milk, Sucrose and water. The samples were prepared using a 0.2% Compound stock made with 0.2% sodium bicarbonate and water. Tests samples are presented in pairs to the panelists and they are asked to determine which of the sample is sweeter.
as §3, §4

In series [3] the test system is human panelists. Briefly: Paired comparison test, taste of the compound alone in low sodium phosphate buffer (LSB). The series is classed as in vivo. On the procedure:
as §1, §2, §3, §4

Structures are written as SMILES.

For `OC[C@H]1O[C@@](CO)(O[C@H]2O[C@H](CO)[C@@H](O)[C@H](O)[C@H]2O)[C@@H](O)[C@@H]1O` [Sucrose, sucrose], the “Sample selected as sweeter by panelists, Total” value (shortened to “Sample selected as sweeter”) came out at 18 with human panelists [1] (Table 1-a: 12% Sucrose vs 6% Sucrose + 21 μM Compound Q1, pH 7.1, n = 30 (15 panelists × 2 reps)); 24 in the series on human panelists [1] (Table 1-b: 12% Sucrose vs 6% Sucrose + 7.9 μM Compound Q1, pH 2.8, n = 42 (14 panelists × 3 reps)); 28 in the series on human panelists [1] (Table 4-a: 12% Sucrose vs 6% Sucrose + 12.7 μM Compound J2, pH 7.1, n = 51 (17 panelists × 3 reps)); 20 with human panelists [1] (Table 4-b: 12% Sucrose vs 6% Sucrose + 12.7 μM Compound J2, pH 2.8, n = 45 (15 panelists × 3 reps)); 20 in the series with human panelists [1] (Table 7-a: 11% Sucrose vs 6% Sucrose + 12.7 μM Compound K2, pH 7.1, n = 36 (12 panelists × 3 reps)); 21 with human panelists [1] (Table 7-b: 12% Sucrose vs 6% Sucrose + 7.6 μM Compound K2, pH 2.8, n = 36 (18 panelists × 2 reps)). The “Sample selected as sweeter” value amounted to 19 in the series on human panelists [1] (Table 10: 12% Sucrose vs 6% Sucrose + 12.7 μM Compound L2, pH 7.1, n = 42 (14 panelists × 3 reps)); 19 in the series with human panelists [1] (Table 13: 12% Sucrose vs 6% Sucrose + 11.9 μM Compound B1, pH 7.1, n = 34 (17 panelists × 2 reps)); 16 with human panelists [1] (Table 16: 10% Sucrose vs 6% Sucrose + 9.2 μM Compound F3, pH 7.1, n = 33 (11 panelists × 3 reps)); 16 in the series on human panelists [2]; 14 in the series on human panelists [3] (Table 3: 1% Sucrose vs LSB + 26.3 μM Compound Q1, n = 26 (13 panelists × 2 reps)); 14 in the series on human panelists [3] (Table 6: 1% Sucrose vs LSB + 20.4 μM Compound J2, n = 26 (13 panelists × 2 reps)). Also, the “Sample selected as sweeter” value in the series on human panelists [3] (Table 9: 1% Sucrose vs LSB + 12.7 μM Compound K2, n = 51 (17 panelists × 2 reps)) was 29; in the series with human panelists [3] (Table 12: 1% Sucrose vs LSB + 12.7 μM Compound L2, n = 36 (12 panelists × 3 reps)), 19; in the series with human panelists [3] (Table 15: 1% Sucrose vs LSB + 11.9 μM Compound B1, n = 45 (15 panelists × 3 reps)), 19; in the series with human panelists [3] (Table 18: 1% Sucrose vs LSB + 9.2 μM Compound F3, n = 30 (15 panelists × 2 reps)), 16.
`NC1=NS(=O)(=O)Nc2cccc(OC[C@H]3CCCN(C(=O)c4ccncc4)C3)c21` [Example 3, (S)-(3-(((4-amino-2,2-dioxido-1H-benzo[c][1,2,6]thiadiazin-5-yl)oxy)methyl)piperidin-1-yl)(pyridin-4-yl)methanone] came in with a melting point above 250 °C.
